Experimental findings from patent US20240383908A1, “SYNTHESIS AND APPLICATION OF PHOSPHATASE DEGRADER” (HINOVA PHARMACEUTICALS INC., priority 2021, published 2024) are described below.

Structures can show the parent of a compound that is named as a salt.

A word on the DC50: it is the concentration at which degradation of the target reaches its halfway point.

This experiment addresses T1, SHP2 protein (Homo sapiens, UniProt Q06124).
T1 sequence (Q06124 1-593): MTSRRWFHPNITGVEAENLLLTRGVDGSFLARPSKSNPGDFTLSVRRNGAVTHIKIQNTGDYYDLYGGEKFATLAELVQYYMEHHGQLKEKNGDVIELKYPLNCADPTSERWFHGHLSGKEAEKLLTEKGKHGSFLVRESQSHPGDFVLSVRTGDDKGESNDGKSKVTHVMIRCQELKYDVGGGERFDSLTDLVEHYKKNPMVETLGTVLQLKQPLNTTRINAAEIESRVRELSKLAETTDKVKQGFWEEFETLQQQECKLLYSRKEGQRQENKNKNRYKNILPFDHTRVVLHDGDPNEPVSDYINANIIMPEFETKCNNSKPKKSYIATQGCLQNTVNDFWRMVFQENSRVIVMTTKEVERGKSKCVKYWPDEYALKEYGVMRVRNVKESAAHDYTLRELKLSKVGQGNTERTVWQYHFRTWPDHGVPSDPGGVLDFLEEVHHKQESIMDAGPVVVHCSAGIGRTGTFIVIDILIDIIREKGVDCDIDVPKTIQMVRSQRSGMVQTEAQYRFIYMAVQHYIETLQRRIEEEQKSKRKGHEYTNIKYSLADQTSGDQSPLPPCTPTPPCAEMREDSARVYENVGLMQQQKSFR
In words: Degradation activity on SHP2 protein in MIA Paca-2 cells (Western blot, DC50). It counts as cell-based. Also noted: endogenous in cells; host or cells: MIA Paca-2 cells. The conditions noted are these: read-out: Degradation activity for differenct cell lines MIA Paca-2 (DC50). In a few lines:
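DC50 is the concentration degrading 50% of SHP2 relative to DMSO control. It was derived by fitting Western blot band densitometry (anti-SHP2, GAPDH reference) from cells exposed 24 h to 0.1–100 nM compound in 0.1% DMSO.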
In general terms: Immunoblotting shows a protein as a band on a membrane.
Take `Cc1nc(C(=O)NCc2ccc3c(c2)CN(C2CCC(=O)NC2=O)C3=O)ccc1C1=CCN(C2CCN(c3ccc(C(=O)Nc4cccc(Sc5cnc(N6CCC7(CC6)CO[C@@H](C)[C@H]7N)cn5)c4)cc3F)CC2)CC1` (stereo partly drawn) [Compound 461, N-{[2-(2,6-oxohexahydropyridin-3-yl)-1-oxo-2,3-dihydro-1H-isoindol-5-yl]methyl}-5-(1-{1-[2-fluoro-4-({[3-({5-[(3S,4S)-4-amino-3-methyl-8-aza-2-oxaspiro[4.5]decan-8-yl]pyrazin-2-yl}thio)phenyl]amino}carbonyl)phenyl]hexahydropyridine-4-yl}-1,2,3,6-tetrahydropyridin-4-yl)-6-methylpyridine-2-formamide hydrochloride]: the DC50 was < 0.1 µM.

On to `Cc1cc(C2=CCN(C3CCN(c4ccc(C(=O)Nc5cccc(Sc6cnc(N7CCC8(CC7)CO[C@@H](C)[C@H]8N)cn6)c5)cc4F)CC3)CC2)cnc1C(=O)NCc1ccc2c(c1)CN(C1CCC(=O)NC1=O)C2=O` (stereo partly shown) [Compound 462], for which the 50% degradation concentration (DC50) is > 1 µM.

With `C[C@@H]1OCC2(CCN(c3cnc(Sc4cccc(NC(=O)c5ccc(N6CCC(N7CC=C(c8ccc(C(=O)NCc9ccc%10c(c9)CN(C9CCC(=O)NC9=O)C%10=O)nc8Cl)CC7)CC6)c(F)c5)c4)cn3)CC2)[C@@H]1N` (stereo partly shown) [Compound 463], the DC50 was > 1 µM.

Regarding `C[C@@H]1OCC2(CCN(c3cnc(Sc4cccc(NC(=O)c5ccc(N6CCC(N7CC=C(c8cnc(C(=O)NCc9ccc%10c(c9)CN(C9CCC(=O)NC9=O)C%10=O)c(F)c8)CC7)CC6)c(F)c5)c4)cn3)CC2)[C@@H]1N` (stereo partly shown) [Compound 464], the DC50 was < 0.1 µM.

On to `C[C@@H]1OCC2(CCN(c3cnc(Sc4cccc(NC(=O)c5ccc(N6CCC(N7CC=C(c8ncc(C(=O)NCc9ccc%10c(c9)CN(C9CCC(=O)NC9=O)C%10=O)cc8F)CC7)CC6)c(F)c5)c4)cn3)CC2)[C@@H]1N` (stereo partly shown) [Compound 466], for which the DC50 was < 0.1 µM.

In the case of `Cc1cc(N2CCC(N3CC=C(c4ccc(C(=O)NCc5ccc6c(c5)CN(C5CCC(=O)NC5=O)C6=O)nc4F)CC3)CC2)ccc1C(=O)Nc1cccc(Sc2cnc(N3CCC(C)(N)CC3)cn2)c1` (stereo not shown) [Compound 468], the 50% degradation concentration (DC50) is < 0.1 µM.

In the case of `Cc1cc(C(=O)Nc2cccc(Sc3cnc(N4CCC(C)(N)CC4)cn3)c2)ccc1N1CCC(N2CC=C(c3ccc(C(=O)NCc4ccc5c(c4)CN(C4CCC(=O)NC4=O)C5=O)nc3F)CC2)CC1` (stereo not shown) [Compound 469], the 50% degradation concentration (DC50) lay in the range of 0.1 to 1 µM.

Turning to `Cc1cc(C(=O)NCc2ccc3c(c2)CN(C2CCC(=O)NC2=O)C3=O)ncc1C1=CCN(C2CCN(c3ccc(C(=O)Nc4cccc(Sc5cnc(N6CCC(C)(N)CC6)cn5)c4)cc3F)CC2)CC1` (stereo not shown) [Compound 470], the DC50 fell in the range of 0.1 to 1 µM.

For `CC1(N)CCN(c2cnc(Sc3cccc(NC(=O)c4cc(F)c(N5CCC(N6CC=C(c7ccc(C(=O)NCc8ccc9c(c8)CN(C8CCC(=O)NC8=O)C9=O)nc7)CC6)CC5)c(F)c4)c3)cn2)CC1` (stereo not shown) [Compound 471], the DC50 fell in the range of 0.1 to 1 µM.

For the compound `C[C@@H]1OCC2(CCN(c3cnc(Sc4cccc(NC(=O)c5ccc(N6CCC(N7CC=C(c8ccc(C(=O)NCc9ccc%10c(c9)CN(C9CCC(=O)NC9=O)C%10=O)c(F)n8)CC7)CC6)c(F)c5)c4)cn3)CC2)[C@@H]1N` (stereo partly shown) [Compound 472], the DC50 lay in the range of 0.1 to 1 µM.

Consider `C[C@@H]1OCC2(CCN(c3cnc(Sc4cccc(NC(=O)C5CC6(C5)CC(N5CC=C(c7ccc(C(=O)NCc8ccc9c(c8)CN(C8CCC(=O)NC8=O)C9=O)nc7)CC5)C6)c4)cn3)CC2)[C@@H]1N` (stereo partly shown) [Compound 473], for which the DC50 is < 0.1 µM.

As to `C[C@@H]1OCC2(CCN(c3cnc(Sc4cccc(NC(=O)C5CCC(N6CC=C(c7ccc(C(=O)NCc8ccc9c(c8)CN(C8CCC(=O)NC8=O)C9=O)nc7)CC6)CC5)c4)cn3)CC2)[C@@H]1N` (stereo partly shown) [Compound 474], the half-maximal degradation concentration (DC50) was < 0.1 µM.

`C[C@@H]1OCC2(CCN(c3cnc(Sc4cccc(NC(=O)C5CC(N6CCN(c7ccc(C(=O)NCc8ccc9c(c8)CN(C8CCC(=O)NC8=O)C9=O)nn7)CC6)C5)c4)cn3)CC2)[C@@H]1N` (stereo partly shown) [Compound 475]: the 50% degradation concentration (DC50) is > 1 µM.

Consider `C[C@@H]1OCC2(CCN(c3cnc(Sc4cccc(NC(=O)C5CCC(N6CCN(c7ccc(C(=O)NCc8ccc9c(c8)CN(C8CCC(=O)NC8=O)C9=O)nn7)CC6)CC5)c4)cn3)CC2)[C@@H]1N` (stereo partly shown) [Compound 476], for which the half-maximal degradation concentration (DC50) is > 1 µM.

`C[C@@H]1OCC2(CCN(c3cnc(Sc4cccc(NC(=O)C5CC(N6CC=C(c7ccc(C(=O)NCc8ccc9c(c8)CN(C8CCC(=O)NC8=O)C9=O)nc7)CC6)C5)c4)cn3)CC2)[C@@H]1N` (stereo partly shown) [Compound 477]: the DC50 is < 0.1 µM.

Take `C[C@@H]1OCC2(CCN(c3cnc(Sc4cccc(NC(=O)c5ccc(N6CCC(N7CC=C(c8ccc(C(=O)NCc9ccc%10c(c9)CN(C9CCC(=O)NC9=O)C%10=O)c(Cl)c8)CC7)CC6)c(F)c5)c4)cn3)CC2)[C@@H]1N` (stereo partly shown) [Compound 479]: the DC50 was in the range of 0.1 to 1 µM.

For `Cc1cc(C(=O)NCc2ccc3c(c2)CN(C2CCC(=O)NC2=O)C3=O)ncc1C1=CCN(C2CCN(c3ccc(C(=O)Nc4cccc(Sc5cnc(N6CCC(C)(N)CC6)cn5)c4)cc3)CC2)CC1` (stereo not shown) [Compound 480], the DC50 was < 0.1 µM.

As to `CC1(N)CCN(c2cnc(Sc3cccc(NC(=O)c4ccc(N5CCC(N6CC=C(c7ccc(C(=O)NCc8ccc9c(c8)CN(C8CCC(=O)NC8=O)C9=O)nc7F)CC6)CC5)cc4)c3)cn2)CC1` (stereo not shown) [Compound 481], the DC50 was < 0.1 µM.

As to `C[C@@H]1OCC2(CCN(c3cnc(Sc4cccc(NC(=O)c5ccc(N6CCC(N7CC=C(c8ccc(C(=O)NCc9ccc%10c(c9)CN(C9CCC(=O)NC9=O)C%10=O)nc8F)CC7)CC6)c(F)c5)c4)cn3)CC2)[C@@H]1N` (stereo partly drawn) [Compound 483, 1′-(1-(4-((3-((5-((3S,4S)-4-amino-3-methyl-2-oxa-8-azaspiro[4.5]decan-8-yl)pyrazin-2-yl)thio)phenyl)aminoformyl)-2-fluorophenyl)piperidin-4-yl)-N-((2-(2,6-dioxopiperidin-3-yl)-1-oxoisoindol-5-yl)methyl)-2-fluoro-1′,2′,3′,6′-tetrahydro-[3,4′-bipyridine]-6-formamide hydrochloride], the half-maximal degradation concentration (DC50) is < 0.1 µM.

For `CC1(N)CCN(c2cnc(Sc3cccc(NC(=O)c4ccc(N5CCC(N6CCN(c7cnc(C(=O)NCc8ccc9c(c8)CN(C8CCC(=O)NC8=O)C9=O)cc7Cl)CC6)CC5)nc4)c3)cn2)CC1` (stereo not shown) [Compound 484], the DC50 is < 0.1 µM.

Consider `Cc1cc(C(=O)Nc2cccc(Sc3cnc(N4CCC(C)(N)CC4)cn3)c2)cc(C)c1N1CCC(N2CC=C(c3ccc(C(=O)NCc4ccc5c(c4)CN(C4CCC(=O)NC4=O)C5=O)nc3)CC2)CC1` (stereo not shown) [Compound 486], for which the half-maximal degradation concentration (DC50) was < 0.1 µM.

Regarding `Cc1cc(C2=CCN(C3CCN(c4ccc(C(=O)Nc5cccc(Sc6cnc(N7CCC8(CC7)CO[C@@H](C)[C@H]8N)cn6)c5)cc4F)CC3)CC2)ncc1C(=O)NCc1ccc2c(c1)CN(C1CCC(=O)NC1=O)C2=O` (stereo partly shown) [Compound 488], the 50% degradation concentration (DC50) was < 0.1 µM.

For `C[C@@H]1OCC2(CCN(c3cnc(Sc4cccc(NC(=O)C5CCC(N6CC7(CCN(c8ccc(C(=O)NCc9ccc%10c(c9)CN(C9CCC(=O)NC9=O)C%10=O)cn8)C7)C6)CC5)c4)cn3)CC2)[C@@H]1N` (stereo partly shown) [Compound 489], the 50% degradation concentration (DC50) is > 1 µM.

As to `C[C@@H]1OCC2(CCN(c3cnc(Sc4cccc(NC(=O)c5ccc(CN6CC7(CCN(c8ccc(C(=O)NCc9ccc%10c(c9)CN(C9CCC(=O)NC9=O)C%10=O)cn8)C7)C6)cc5)c4)cn3)CC2)[C@@H]1N` (stereo partly shown) [Compound 490], the DC50 lay within 0.1 to 1 µM.

`CC1(N)CCN(c2cnc(Sc3cccc(NC(=O)c4ccc(N5CCC(N6CCN(c7nnc(C(=O)NCc8ccc9c(c8)CN(C8CCC(=O)NC8=O)C9=O)cc7Cl)CC6)CC5)cc4)c3)cn2)CC1` (stereo not shown) [Compound 491]: the DC50 was > 1 µM.

Take `CC1(N)CCN(c2cnc(Sc3cccc(NC(=O)c4ccc(N5CCC(N6CCN(c7nnc(C(=O)NCc8ccc9c(c8)CN(C8CCC(=O)NC8=O)C9=O)cc7Cl)CC6)CC5)nc4)c3)cn2)CC1` (stereo not shown) [Compound 492]: the DC50 was < 0.1 µM.

On to `CC1(N)CCN(c2cnc(Sc3cccc(NC(=O)c4ccc(N5CCC(N6CCN(c7nnc(C(=O)NCc8ccc9c(c8)CN(C8CCC(=O)NC8=O)C9=O)cc7Cl)CC6)CC5)c(F)c4)c3)cn2)CC1` (stereo not shown) [Compound 493], for which the half-maximal degradation concentration (DC50) was < 0.1 µM.

`CC1(N)CCN(c2cnc(Sc3cccc(NC(=O)c4ccc(N5CCC(N6CCN(c7nnc(C(=O)NCc8ccc9c(c8)CN(C8CCC(=O)NC8=O)C9=O)cc7Cl)CC6)CC5)cc4F)c3)cn2)CC1` (stereo not shown) [Compound 494]: the DC50 was < 0.1 µM.

As for `Cc1cc(C(=O)Nc2cccc(Sc3cnc(N4CCC(C)(N)CC4)cn3)c2)ccc1N1CCC(N2CCN(c3cnc(C(=O)NCc4ccc5c(c4)CN(C4CCC(=O)NC4=O)C5=O)cc3Cl)CC2)CC1` (stereo not shown) [Compound 495], the half-maximal degradation concentration (DC50) is < 0.1 µM.

For `CC1(N)CCN(c2cnc(Sc3cccc(NC(=O)c4ccc(N5CCC(N6CCN(c7cnc(C(=O)NCc8ccc9c(c8)CN(C8CCC(=O)NC8=O)C9=O)cc7Cl)CC6)CC5)c(F)c4)c3)cn2)CC1` (stereo not shown) [Compound 496], the 50% degradation concentration (DC50) was < 0.1 µM.

Consider `CC1(N)CCN(c2cnc(Sc3cccc(NC(=O)c4ccc(N5CCC(N6CCN(c7cnc(C(=O)NCc8ccc9c(c8)CN(C8CCC(=O)NC8=O)C9=O)cc7Cl)CC6)CC5)cc4F)c3)cn2)CC1` (stereo not shown) [Compound 497], for which the 50% degradation concentration (DC50) was < 0.1 µM.
